Laboratory results: patent publication US20240376094A2, “SELECTIVE BCL-XL PROTAC COMPOUNDS AND METHODS OF USE” (Les Laboratoires Servier, priority 2021, published 2024)

Tests used:
Assay type in all cases: cell-based
[1] = test system: EBC-1 lung cancer cell line; assay: EBC-1 cell proliferation, CellTiter-Glo assay; conditions: Homo sapiens, 120 h; Ebc-1 cell viability, CTG assay, 5 days of treatment; read-out: CTG 5 day Ebc1 GI50
Method in brief: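 CellTiter-Glo read-out after 5-day compound treatment, normalised to untreated cells, with GI50 derived by four-parameter logistic regression. Ten concentrations spanning 0.508 nM–10 μM were added to 1000 EBC-1 cells per well the day after seeding. Assays required at least one cell doubling versus Day 0.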

[2] = target: T1, HiBiT-tagged BCL-xL (Homo sapiens, UniProt Q07817); assay: NCI-H1650 BCL-xL protein levels, Nano-Glo HiBiT Lytic Detection; conditions: NCI-H1650 expressing HiBiT-tagged BCL-xL, overnight incubation, read-out: Bcl-xl HIBIT NCIH1650 DC50
T1 construct: expressed in transfected cells; host or cells: NCI-H1650 (ATCC No. CRL-5883), engineered HiBiT cell line
T1 sequence (Q07817 whole entry): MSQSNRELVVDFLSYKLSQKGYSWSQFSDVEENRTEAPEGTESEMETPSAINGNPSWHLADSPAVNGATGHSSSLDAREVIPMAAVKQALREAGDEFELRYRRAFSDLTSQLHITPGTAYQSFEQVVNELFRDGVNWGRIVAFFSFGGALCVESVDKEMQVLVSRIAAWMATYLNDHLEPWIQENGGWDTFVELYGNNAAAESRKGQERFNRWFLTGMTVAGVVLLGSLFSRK
Method in brief: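 HiBiT luminescence after cell lysis with LgBiT/furimazine reagent reported BCL-xL levels, expressed relative to untreated wells and fitted with a four-parameter logistic equation. Engineered NCI-H1650 cells were exposed overnight at 37° C to compound at final 0.508 nM-10 μM (10 points, triplicate plates).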

[3] = target: T2, Bcl-xL (Homo sapiens, UniProt Q07817); assay: HCT116 Bcl-xL degradation, capillary-based immunoassay (WES); conditions: for DC50: HCT116, 24 h, 9-point serial dilution; for remaining activity at 0.01 µM / remaining activity at 0.1 µM: HCT-116, 24 h, % of untreated cells; for remaining activity at 0.01 µM: HCT116, 10 nM; for remaining activity at 0.1 µM: HCT116, 100 nM
T2 construct: Measured levels of Bcl-xL protein of HCT116 cells treated with the tested compounds; host or cells: HCT116
T2 sequence (Q07817 whole entry): as above
Method in brief: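 Bcl-xL protein level by capillary WES immunoassay in HCT116 lysates, as % of untreated after cofilin normalization. Compound exposure was 24 h at 10 and 100 nM and/or a 9-point series, in quadruplicate. Four-parameter fitting gave the DC50.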

GI50 [1]	DC50 [2]	DC50 [3]	remaining activity at 0.01 µM [3]	remaining activity at 0.1 µM [3]	SMILES
21 nM	> 1670 nM	0.462 nM	39%	23%	Cc1ncsc1-c1ccc(CNC(=O)C2C[C@@H](O)CN2C(=O)C(NC(=O)CCCCCC(=O)N2CCN(CC#Cc3ccc(OCCCc4sc(N5CCCc6c5nnc(Nc5nc7ccccc7s5)c6C)nc4C(=O)O)c(F)c3)CC2)C(C)(C)C)cc1 (stereo in doubt) [Example 15, 2-[3-(1,3-benzothiazol-2-ylamino)-4-methyl-6,7-dihydro-5H-pyrido[2,3-c]pyridazin-8-yl]-5-[3-[2-fluoro-4-[3-[4-[7-[[(1S)-1-[(2S,4R)-4-hydroxy-2-[[4-(4-methylthiazol-5-yl)phenyl]methylcarbamoyl]pyrrolidine-1-carbonyl]-2,2-dimethyl-propyl]amino]-7-oxo-heptanoyl]piperazin-1-yl]prop-1-ynyl]phenoxy]propyl] thiazole-4-carboxylic acid]
–	–	> 316 nM	75%	44%	Cc1ncsc1-c1ccc(CNC(=O)[C@@H]2CC(O)CN2C(=O)C(NC(=O)CCCCCCC(=O)N2CCN(CCOC34CC5(C)CC(C)(CC(Cn6ncc(-c7ccc(N8CCCc9c8nnc(Nc8nc%10ccccc%10s8)c9C)nc7C(=O)O)c6C)(C5)C3)C4)CC2)C(C)(C)C)cc1 (stereo in doubt) [Example 24, 6-[3-(1,3-benzothiazol-2-ylamino)-4-methyl-6,7-dihydro-5H-pyrido[2,3-c]pyridazin-8-yl]-3-[1-[[3-[2-[4-[8-[[(1S)-1-[(2S,4R)-4-hydroxy-2-[[4-(4-methylthiazol-5-yl)phenyl]methylcarbamoyl]pyrrolidine-1-carbonyl]-2,2-dimethyl-propyl]amino]-8-oxo-octanoyl]piperazin-1-yl]ethoxy]-5,7-dimethyl-1-adamantyl]methyl]-5-methyl-pyrazol-4-yl]pyridine-2-carboxylic acid]
1 nM	0.4 nM	1.22 nM	11%	6%	Cc1ncsc1-c1ccc([C@H](C)NC(=O)C2CC(O)CN2C(=O)C(NC(=O)CCCCCCCCCCCN2CCN(CC#Cc3ccc(OCCCc4sc(N5CCCc6c5nnc(Nc5nc7ccccc7s5)c6C)nc4C(=O)O)c(F)c3)CC2)C(C)(C)C)cc1 (stereo in doubt) [Example 31, 2-[3-(1,3-benzothiazol-2-ylamino)-4-methyl-6,7-dihydro-5H-pyrido[2,3-c]pyridazin-8-yl]-5-[3-[2-fluoro-4-[3-[4-[12-[[(1S)-1-[(2S,4R)-4-hydroxy-2-[[(1S)-1-[4-(4-methylthiazol-5-yl)phenyl]ethyl]carbamoyl]pyrrolidine-1-carbonyl]-2,2-dimethyl-propyl]amino]-12-oxo-dodecyl]piperazin-1-yl]prop-1-ynyl]phenoxy]propyl] thiazole-4-carboxylic acid]
33 nM	> 1670 nM	–	–	–	Cc1ncsc1-c1ccc(CNC(=O)[C@@H]2C[C@@H](O)CN2C(=O)[C@@H](NC(=O)CCCCCCC(=O)N2CCN(CC#Cc3ccc(OCCCc4sc(N5CCCc6c5nnc(Nc5nc7ccccc7s5)c6C)nc4C(=O)O)c(F)c3)CC2)C(C)(C)C)cc1 [Example 33, 2-(3-(benzo[d]thiazol-2-ylamino)-4-methyl-6,7-dihydropyrido [2,3-c]pyridazin-8(5H)-yl)-5-(3-(2-fluoro-4-(3-(4-(8-(((S)-1-((2S,4R)-4-hydroxy-2-((4-(4-methylthiazol-5-yl)benzyl)carbamoyl)pyrrolidin-1-yl)-3,3-dimethyl-1-oxobutan-2-yl)amino)-8-oxooctanoyl)piperazin-1-yl)prop-1-yn-1-yl)phenoxy)propyl) thiazole-4-carboxylic acid]
19 nM	> 1670 nM	–	–	–	Cc1ncsc1-c1ccc([C@H](C)NC(=O)[C@@H]2C[C@@H](O)CN2C(=O)[C@@H](NC(=O)CCCC(=O)N2CCN(CC#Cc3ccc(OCCCc4sc(N5CCCc6c5nnc(Nc5nc7ccccc7s5)c6C)nc4C(=O)O)c(F)c3)CC2)C(C)(C)C)cc1 [Example 35, 2-(3-(benzo[d]thiazol-2-ylamino)-4-methyl-6,7-dihydropyrido [2,3-c]pyridazin-8(5H)-yl)-5-(3-(2-fluoro-4-(3-(4-(5-(((S)-1-((2S,4R)-4-hydroxy-2-(((S)-1-(4-(4-methylthiazol-5-yl)phenyl)ethyl)carbamoyl)pyrrolidin-1-yl)-3,3-dimethyl-1-oxobutan-2-yl)amino)-5-oxopentanoyl)piperazin-1-yl)prop-1-yn-1-yl)phenoxy)propyl)thiazole-4-carboxylic acid]
21 nM	> 1670 nM	–	–	–	Cc1ncsc1-c1ccc([C@H](C)NC(=O)[C@@H]2C[C@@H](O)CN2C(=O)[C@@H](NC(=O)CC23CC4CC(C2)CC(CC(=O)N2CCN(CC#Cc5ccc(OCCCc6sc(N7CCCc8c7nnc(Nc7nc9ccccc9s7)c8C)nc6C(=O)O)c(F)c5)CC2)(C4)C3)C(C)(C)C)cc1 [Example 42, 2-(3-(benzo[d]thiazol-2-ylamino)-4-methyl-6,7-dihydropyrido [2,3-c]pyridazin-8(5H)-yl)-5-(3-(2-fluoro-4-(3-(4-(2-((3S,5R)-3-(2-(((S)-1-((2S,4R)-4-hydroxy-2-(((S)-1-(4-(4-methylthiazol-5-yl)phenyl)ethyl)carbamoyl)pyrrolidin-1-yl)-3,3-dimethyl-1-oxobutan-2-yl)amino)-2-oxoethyl)adamantan-1-yl)acetyl)piperazin-1-yl)prop-1-yn-1-yl)phenoxy)propyl)thiazole-4-carboxylic acid]
7 nM	2 nM	–	–	–	Cc1ncsc1-c1ccc([C@H](C)NC(=O)[C@@H]2C[C@@H](O)CN2C(=O)[C@@H](NC(=O)CCCCCCCCCCC(=O)N2CCN(CC#Cc3ccc(OCCCc4sc(N5CCCc6c5nnc(Nc5nc7ccccc7s5)c6C)nc4C(=O)O)c(F)c3)CC2)C(C)(C)C)cc1 [Example 46, 2-(3-(benzo[d]thiazol-2-ylamino)-4-methyl-6,7-dihydropyrido [2,3-c]pyridazin-8(5H)-yl)-5-(3-(2-fluoro-4-(3-(4-(12-(((S)-1-((2S,4R)-4-hydroxy-2-(((S)-1-(4-(4-methylthiazol-5-yl)phenyl)ethyl)carbamoyl)pyrrolidin-1-yl)-3,3-dimethyl-1-oxobutan-2-yl)amino)-12-oxododecanoyl)piperazin-1-yl)prop-1-yn-1-yl)phenoxy)propyl)thiazole-4-carboxylic acid]
76 nM	9 nM	–	–	–	Cc1ncsc1-c1ccc([C@H](C)NC(=O)[C@@H]2C[C@@H](O)CN2C(=O)[C@@H](NC(=O)CCCCCCCCCCC(=O)N2CCN(CCOC34CC5(C)CC(C)(CC(Cn6ncc(-c7ccc(N8CCCc9c8nnc(Nc8nc%10ccccc%10s8)c9C)nc7C(=O)O)c6C)(C5)C3)C4)CC2)C(C)(C)C)cc1 [Example 47, 6-(3-(benzo[d]thiazol-2-ylamino)-4-methyl-6,7-dihydropyrido [2,3-c]pyridazin-8(5H)-yl)-3-(1-(((1r,3s,5R,7S)-3-(2-(4-(12-(((S)-1-((2S,4R)-4-hydroxy-2-(((S)-1-(4-(4-methylthiazol-5-yl)phenyl)ethyl)carbamoyl)pyrrolidin-1-yl)-3,3-dimethyl-1-oxobutan-2-yl)amino)-12-oxododecanoyl)piperazin-1-yl)ethoxy)-5,7-dimethyladamantan-1-yl)methyl)-5-methyl-1H-pyrazol-4-yl)picolinic acid]
12 nM	1 nM	–	–	–	Cc1ncsc1-c1ccc(CNC(=O)[C@@H]2C[C@@H](O)CN2C(=O)[C@@H](NC(=O)CCCCCCCCCCC(=O)N2CCN(CC#Cc3ccc(OCCCc4sc(N5CCCc6c5nnc(Nc5nc7ccccc7s5)c6C)nc4C(=O)O)c(F)c3)CC2)C(C)(C)C)cc1 [Example 48, 2-(3-(benzo[d]thiazol-2-ylamino)-4-methyl-6,7-dihydropyrido [2,3-c]pyridazin-8(5H)-yl)-5-(3-(2-fluoro-4-(3-(4-(12-(((S)-1-((2S,4R)-4-hydroxy-2-((4-(4-methylthiazol-5-yl)benzyl)carbamoyl)pyrrolidin-1-yl)-3,3-dimethyl-1-oxobutan-2-yl)amino)-12-oxododecanoyl)piperazin-1-yl)prop-1-yn-1-yl)phenoxy)propyl)thiazole-4-carboxylic acid]
1 nM	0.3 nM	–	–	–	Cc1ncsc1-c1ccc([C@H](C)NC(=O)[C@@H]2C[C@@H](O)CN2C(=O)[C@@H](NC(=O)CCCCCCCCCCCN2CCN(CC#Cc3ccc(OCCCc4sc(N5CCCc6c5nnc(Nc5nc7ccccc7s5)c6C)nc4C(=O)O)c(F)c3)CC2)C(C)(C)C)cc1 [Example 51, 2-(3-(benzo[d]thiazol-2-ylamino)-4-methyl-6,7-dihydropyrido [2,3-c]pyridazin-8(5H)-yl)-5-(3-(2-fluoro-4-(3-(4-(12-(((S)-1-((2S,4R)-4-hydroxy-2-(((S)-1-(4-(4-methylthiazol-5-yl)phenyl)ethyl)carbamoyl)pyrrolidin-1-yl)-3,3-dimethyl-1-oxobutan-2-yl)amino)-12-oxododecyl)piperazin-1-yl)prop-1-yn-1-yl)phenoxy)propyl)thiazole-4-carboxylic acid]
